The values below come from patent US11180494B2, “Substituted amino acids as integrin inhibitors” (Pliant Therapeutics, Inc., priority 2018, dated 2021).

Some results are limits rather than exact numbers.

human integrin αvβ6, sequence (P06756 31-992): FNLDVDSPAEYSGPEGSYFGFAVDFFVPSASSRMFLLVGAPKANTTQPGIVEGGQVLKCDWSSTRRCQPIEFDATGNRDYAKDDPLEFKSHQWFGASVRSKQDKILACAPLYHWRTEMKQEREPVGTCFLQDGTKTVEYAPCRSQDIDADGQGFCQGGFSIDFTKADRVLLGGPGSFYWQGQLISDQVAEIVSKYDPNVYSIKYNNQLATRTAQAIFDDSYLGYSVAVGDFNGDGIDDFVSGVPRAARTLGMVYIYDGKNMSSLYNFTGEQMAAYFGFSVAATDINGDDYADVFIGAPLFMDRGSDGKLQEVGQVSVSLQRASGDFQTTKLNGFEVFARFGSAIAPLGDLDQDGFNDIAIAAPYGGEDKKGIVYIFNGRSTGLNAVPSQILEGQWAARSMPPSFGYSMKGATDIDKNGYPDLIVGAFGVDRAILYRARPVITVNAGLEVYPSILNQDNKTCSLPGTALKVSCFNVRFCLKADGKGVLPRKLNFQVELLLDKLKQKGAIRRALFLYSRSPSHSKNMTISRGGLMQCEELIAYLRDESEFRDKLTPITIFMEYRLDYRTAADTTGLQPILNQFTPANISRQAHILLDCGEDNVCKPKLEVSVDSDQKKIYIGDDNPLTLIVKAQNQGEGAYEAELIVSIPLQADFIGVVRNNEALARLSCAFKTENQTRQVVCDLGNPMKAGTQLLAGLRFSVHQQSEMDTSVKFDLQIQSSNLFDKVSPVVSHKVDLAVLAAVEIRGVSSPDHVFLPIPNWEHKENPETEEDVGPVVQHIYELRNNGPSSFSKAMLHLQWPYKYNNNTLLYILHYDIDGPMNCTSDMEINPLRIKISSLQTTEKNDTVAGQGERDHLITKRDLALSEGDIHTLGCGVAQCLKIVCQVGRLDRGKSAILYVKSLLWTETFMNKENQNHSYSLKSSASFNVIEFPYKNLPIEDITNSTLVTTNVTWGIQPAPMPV
human integrin αvβ6, sequence (P18564 22-707): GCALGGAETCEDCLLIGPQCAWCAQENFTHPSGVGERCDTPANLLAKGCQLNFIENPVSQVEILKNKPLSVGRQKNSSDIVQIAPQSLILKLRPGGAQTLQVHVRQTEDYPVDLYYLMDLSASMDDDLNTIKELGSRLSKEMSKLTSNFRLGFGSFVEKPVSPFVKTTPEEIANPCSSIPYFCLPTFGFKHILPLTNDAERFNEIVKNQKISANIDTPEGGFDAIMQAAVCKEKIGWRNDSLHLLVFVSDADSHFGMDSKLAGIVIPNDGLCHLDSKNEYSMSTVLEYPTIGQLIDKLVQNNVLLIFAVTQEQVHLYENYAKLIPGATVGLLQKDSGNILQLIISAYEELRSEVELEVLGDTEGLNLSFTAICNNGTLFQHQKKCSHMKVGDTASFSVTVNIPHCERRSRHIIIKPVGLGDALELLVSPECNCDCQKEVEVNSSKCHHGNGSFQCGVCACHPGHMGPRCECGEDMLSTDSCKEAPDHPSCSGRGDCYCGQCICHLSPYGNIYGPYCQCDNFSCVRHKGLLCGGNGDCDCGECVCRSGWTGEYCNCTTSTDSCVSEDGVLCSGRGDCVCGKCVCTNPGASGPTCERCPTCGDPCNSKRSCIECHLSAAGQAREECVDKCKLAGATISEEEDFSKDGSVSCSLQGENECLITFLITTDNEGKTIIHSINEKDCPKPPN

This experiment has as its target human integrin αvβ6 (Homo sapiens (Human), UniProt P06756+P18564). In words: Proximity-based integrin receptor binding assay (ALPHASCREEN) for inhibitor potency. As to conditions: inhibition of binding of TGF-b1 LAP to human integrin αvβ6; values given in ranges. The procedure: To gauge the potency of inhibitors of binding to human integrin αvβ6, inhibitor compounds and integrin were incubated together with TGF-b1 LAP and biotinylated anti-LAP antibody plus acceptor and donor beads, following the manufacture's recommendations. The donor beads were coated with streptavidin. […] All incubations occurred at room temperatures in 50 mM Tris-HCl, pH 7.5, 0.1% BSA supplemented with 1 mM each CaCl2 and MgCl2.
The order of reagent addition was as follows:
1. Alpha-v-beta-6 integrin, test inhibitor compound, LAP, biotinylated anti-LAP antibody and acceptor beads were all added together.
2. After 2 hours, donor beads were added. After another 30 minute incubation, samples were then read.
Integrin binding was evaluated by exciting donor beads at 680 nm, and measuring the fluorescent signal produced, between 520-620 nm, using a Biotek Instruments (Winooski, Vt., USA) SynergyNeo2 multimode plate reader. […] Data analysis for IC50 determinations was carried out by nonlinear four parameter logistic regression analysis using Dotmatics ELN Software (Core Informatics Inc., Branford, Conn.).
As a reminder, the IC50 is the midpoint of a concentration-inhibition curve. For `O=C(NC(CCOCCCCc1ccc2c(n1)NCCC2)C(=O)O)c1cccc(F)c1Cl` (racemic) [Compound 1, N-(2-chloro-3-fluorobenzoyl)-O-(4-(5,6,7,8-tetrahydro-1,8-naphthyridin-2-yl)butyl)homoserine], the IC50 is under 0.05 µM.

Consider `O=C(N[C@@H](CCO[C@H]1C[C@H](CCc2ccc3c(n2)NCCC3)C1)C(=O)O)c1ccnc2cc[nH]c12` (relative stereo) [Compound 170, N-(1H-pyrrolo[3,2-b]pyridine-7-carbonyl)-O-(trans-3-(2-(5,6,7,8-tetrahydro-1,8-naphthyridin-2-yl)ethyl)cyclobutyl)homoserine], for which the IC50 is under 0.05 µM.

For the compound `O=C(N[C@@H](CCO[C@H]1C[C@H](CCc2ccc3c(n2)NCCC3)C1)C(=O)O)C1CCCc2cn[nH]c21` (relative stereo) [Compound 177, O-(trans-3-(2-(5,6,7,8-tetrahydro-1,8-naphthyridin-2-yl)ethyl)cyclobutyl)-N-(4,5,6,7-tetrahydro-1H-indazole-7-carbonyl)homoserine], the IC50 lay within 0.05 to 0.25 µM.

In the case of `O=C(N[C@@H](CCO[C@H]1C[C@H](CCc2ccc3c(n2)NCCC3)C1)C(=O)O)C1CCc2ccccc21` (single isomer, unassigned) [95*,†], the concentration for half-maximal inhibition (IC50) is over 1 µM.

With `O=C(N[C@@H](CCO[C@H]1C[C@H](CCc2ccc3c(n2)NCCC3)C1)C(=O)O)C1CCc2ccccc21` (single isomer, unassigned) [96*,††], the half-inhibitory concentration (IC50) was 0.25 to 1 µM.

Regarding `O=C(N[C@@H](CCO[C@H]1C[C@H](CCc2ccc3c(n2)NCCC3)C1)C(=O)O)C1CCc2ccccc21` (single isomer, unassigned) [110**,†], the half-inhibitory concentration (IC50) lay within 0.05 to 0.25 µM.

As to `O=C(N[C@@H](CCO[C@H]1C[C@H](CCc2ccc3c(n2)NCCC3)C1)C(=O)O)C1CCc2ccccc21` (single isomer, unassigned) [111**,††], the IC50 was under 0.05 µM.

For the compound `CC(CO[C@H]1C[C@H](CCc2ccc3c(n2)NCCC3)C1)C(NC(=O)OC(C)(C)C)C(=O)O` (single isomer, unassigned) [Example 145A, 2-((tert-butoxycarbonyl)amino)-3-methyl-4-(trans-3-(2-(5,6,7,8-tetrahydro-1,8-naphthyridin-2-yl)ethyl)cyclobutoxy)butanoic Acid], the half-maximal inhibitory concentration (IC50) was in the range of 0.25 to 1 µM.

For `CC(CO[C@H]1C[C@H](CCc2ccc3c(n2)NCCC3)C1)C(NC(=O)OC(C)(C)C)C(=O)O` (single isomer, unassigned) [Example 145B, 2-((tert-butoxycarbonyl)amino)-3-methyl-4-(trans-3-(2-(5,6,7,8-tetrahydro-1,8-naphthyridin-2-yl)ethyl)cyclobutoxy)butanoic Acid], the IC50 fell in the range of 0.05 to 0.25 µM.

As to `CCC(CC(F)F)C(=O)NC(CCO[C@H]1C[C@H](CCc2ccc3c(n2)NCCC3)C1)C(=O)O` (single isomer, unassigned) [Example 162b, N-(-2-ethyl-4,4-difluorobutanoyl)-O-(trans-3-(2-(5,6,7,8-tetrahydro-1,8-naphthyridin-2-yl)ethyl)cyclobutyl)homoserine], the IC50 is under 0.05 µM.

`Cn1ncc2c(C(=O)NC(CCOCCCCc3ccc4c(n3)NCCC4)C(=O)O)cccc21` (stereo not shown) [Compound 4, N-(1-methyl-1H-indazole-4-carbonyl)-O-(4-(5,6,7,8-tetrahydro-1,8-naphthyridin-2-yl)butyl)homoserine]: the IC50 was over 1 µM.

In the case of `CCC(CC)C(=O)NC(CCOCCCCc1ccc2c(n1)NCCC2)C(=O)O` (stereo not shown) [Compound 5, N-(2-ethylbutanoyl)-O-(4-(5,6,7,8-tetrahydro-1,8-naphthyridin-2-yl)butyl)homoserine], the IC50 lay in the range of 0.05 to 0.25 µM.

In the case of `O=C(NC(CCOCCCCc1ccc2c(n1)NCCC2)C(=O)O)c1ccccc1` (stereo not shown) [Compound 6, N-benzoyl-O-(4-(5,6,7,8-tetrahydro-1,8-naphthyridin-2-yl)butyl)homoserine], the IC50 is 0.25 to 1 µM.

Take `O=C(NC(CCOCCCCc1ccc2c(n1)NCCC2)C(=O)O)C1CCC(F)(F)CC1` (stereo not shown) [Compound 7, N-(4,4-difluorocyclohexane-1-carbonyl)-O-(4-(5,6,7,8-tetrahydro-1,8-naphthyridin-2-yl)butyl)homoserine]: the concentration for half-maximal inhibition (IC50) is 0.05 to 0.25 µM.

As for `CCCCC(=O)NC(CCOCCCCc1ccc2c(n1)NCCC2)C(=O)O` (stereo not shown) [Compound 8, N-pentanoyl-O-(4-(5,6,7,8-tetrahydro-1,8-naphthyridin-2-yl)butyl)homoserine], the concentration for half-maximal inhibition (IC50) is 0.25 to 1 µM.

As to `O=C(NC(CCOCCCCc1ccc2c(n1)NCCC2)C(=O)O)c1cc(F)cc(C(F)(F)F)c1` (stereo not shown) [Compound 9, N-(3-fluoro-5-(trifluoromethyl)benzoyl)-O-(4-(5,6,7,8-tetrahydro-1,8-naphthyridin-2-yl)butyl)homoserine], the half-maximal inhibitory concentration (IC50) was in the range of 0.05 to 0.25 µM.

`O=C(NC(CCOC1CC(CCc2ccc3c(n2)NCCC3)C1)C(=O)O)c1cc(F)cc(C(F)(F)F)c1` (stereo not shown) [Compound 10, N-(3-fluoro-5-(trifluoromethyl)benzoyl)-O-(3-(2-(5,6,7,8-tetrahydro-1,8-naphthyridin-2-yl)ethyl)cyclobutyl)homoserine]: the IC50 lay within 0.05 to 0.25 µM.

Turning to `CCCCC(=O)NC(CCOC1CC(CCc2ccc3c(n2)NCCC3)C1)C(=O)O` (stereo not shown) [Compound 11, N-pentanoyl-O-(3-(2-(5,6,7,8-tetrahydro-1,8-naphthyridin-2-yl)ethyl)cyclobutyl)homoserine], the IC50 is 0.05 to 0.25 µM.

Take `CC(C)(C)OC(=O)NC(CCOCCCCc1ccc2c(n1)NCCC2)C(=O)O` (stereo not shown) [Compound 13, N-(tert-butoxycarbonyl)-O-(4-(5,6,7,8-tetrahydro-1,8-naphthyridin-2-yl)butyl)homoserine]: the IC50 was 0.25 to 1 µM.

Consider `O=C(N[C@@H](CCO[C@H]1C[C@@H](CCc2ccc3c(n2)NCCC3)C1)C(=O)O)c1cccc(F)c1Cl` [Compound 14, N-(2-chloro-3-fluorobenzoyl)-O-(cis-3-(2-(5,6,7,8-tetrahydro-1,8-naphthyridin-2-yl)ethyl)cyclobutyl)homoserine], for which the half-maximal inhibitory concentration (IC50) is under 0.05 µM.

On to `O=C(N[C@@H](CCO[C@H]1C[C@@H](CCc2ccc3c(n2)NCCC3)C1)C(=O)O)c1ccc(F)cc1` [Compound 15, N-(4-fluorobenzoyl)-O-(cis-3-(2-(5,6,7,8-tetrahydro-1,8-naphthyridin-2-yl)ethyl)cyclobutyl)homoserine], for which the half-inhibitory concentration (IC50) was under 0.05 µM.

As for `O=C(N[C@@H](CCO[C@H]1C[C@H](CCc2ccc3c(n2)NCCC3)C1)C(=O)O)c1ccc(F)cc1` [Compound 16, N-(4-fluorobenzoyl)-O-(trans-3-(2-(5,6,7,8-tetrahydro-1,8-naphthyridin-2-yl)ethyl)cyclobutyl)homoserine], the IC50 was under 0.05 µM.

For the compound `O=C(N[C@@H](CCO[C@H]1C[C@H](CCc2ccc3c(n2)NCCC3)C1)C(=O)O)c1ccc(Cl)cc1` [Compound 17, N-(4-chlorobenzoyl)-O-(trans-3-(2-(5,6,7,8-tetrahydro-1,8-naphthyridin-2-yl)ethyl)cyclobutyl)homoserine], the IC50 is under 0.05 µM.

In the case of `CC(C)(C)OC(=O)N[C@@H](CCO[C@H]1C[C@@H](CCc2ccc3c(n2)NCCC3)C1)C(=O)O` [Compound 18, N-(tert-butoxycarbonyl)-O-(cis-3-(2-(5,6,7,8-tetrahydro-1,8-naphthyridin-2-yl)ethyl)cyclobutyl)homoserine], the half-maximal inhibitory concentration (IC50) lay in the range of 0.05 to 0.25 µM.

Take `O=C(N[C@@H](CCO[C@H]1C[C@H](CCc2ccc3c(n2)NCCC3)C1)C(=O)O)c1cccc(F)c1` [Compound 19, N-(3-fluorobenzoyl)-O-(trans-3-(2-(5,6,7,8-tetrahydro-1,8-naphthyridin-2-yl)ethyl)cyclobutyl)homoserine]: the 50% inhibitory concentration (IC50) was under 0.05 µM.

In the case of `O=C(N[C@@H](CCO[C@H]1C[C@H](CCc2ccc3c(n2)NCCC3)C1)C(=O)O)c1cccc(Cl)c1` [Compound 20, N-(3-chlorobenzoyl)-O-(trans-3-(2-(5,6,7,8-tetrahydro-1,8-naphthyridin-2-yl)ethyl)cyclobutyl)homoserine], the IC50 was under 0.05 µM.

On to `O=C(N[C@@H](CCO[C@H]1C[C@H](CCc2ccc3c(n2)NCCC3)C1)C(=O)O)c1ccccc1Cl` [Compound 21, N-(2-chlorobenzoyl)-O-(trans-3-(2-(5,6,7,8-tetrahydro-1,8-naphthyridin-2-yl)ethyl)cyclobutyl)homoserine], for which the 50% inhibitory concentration (IC50) is under 0.05 µM.

Turning to `O=C(N[C@@H](CCO[C@H]1C[C@H](CCc2ccc3c(n2)NCCC3)C1)C(=O)O)c1ccccc1F` [Compound 22, N-(2-fluorobenzoyl)-O-(trans-3-(2-(5,6,7,8-tetrahydro-1,8-naphthyridin-2-yl)ethyl)cyclobutyl)homoserine], the 50% inhibitory concentration (IC50) was under 0.05 µM.

`O=C(N[C@@H](CCO[C@H]1C[C@H](CCc2ccc3c(n2)NCCC3)C1)C(=O)O)c1cccc(F)c1F` [Compound 23, N-(2,3-difluorobenzoyl)-O-(trans-3-(2-(5,6,7,8-tetrahydro-1,8-naphthyridin-2-yl)ethyl)cyclobutyl)homoserine]: the IC50 is under 0.05 µM.

For `O=C(N[C@@H](CCO[C@H]1C[C@H](CCc2ccc3c(n2)NCCC3)C1)C(=O)O)c1ccc(F)cc1F` [Compound 24, N-(2,4-difluorobenzoyl)-O-(trans-3-(2-(5,6,7,8-tetrahydro-1,8-naphthyridin-2-yl)ethyl)cyclobutyl)homoserine], the IC50 was under 0.05 µM.

Turning to `O=C(N[C@@H](CCO[C@H]1C[C@H](CCc2ccc3c(n2)NCCC3)C1)C(=O)O)c1ccc(F)cc1Cl` [Compound 25, N-(2-chloro-4-fluorobenzoyl)-O-(trans-3-(2-(5,6,7,8-tetrahydro-1,8-naphthyridin-2-yl)ethyl)cyclobutyl)homoserine], the IC50 was under 0.05 µM.
